# Laboratory results taken from patent publication US3939143A, “1-N-isoserylkanamycins and the production thereof” (Zaidan Hojin Biseibutsu Kagaku Kenkyu Kai, priority 1973, dated 1976).
# Where two headings read alike, the source gives them in different places.
# How the values were obtained:
# [1] = tested on: Bacillus subtilis PCI 219; test: Minimum inhibitory concentration, serial dilution on nutrient agar; type: cell-based; details: read-out: Minimum Inhibitory Concentration
# [2] = tested on: Pseudomonas aeruginosa A3; test: as above; type: cell-based; details: 37°C, 18 hours
# Protocol: (§1) The minimum inhibitory concentrations (mcg/ml) of 1-N-DL-isoserylkanamycin,1-N-DL-isoserylkanamycin B and 1-N-DL-isoseryl-3',4'-dideoxykanamycin B against various microorganisms were determined according to the serial dilution method using nutrient agar medium at 37°C, the estimation being effected after 18 hours incubation. For comparison purposes, the minimum inhibitory concentrations of kanamycin, kanamycin B and 3',4'-dideoxykanamycin B were also determined in the same manner and under the same conditions as mentioned above.
# (§2) The antibacterial spectra of 1-N-DL-isoseryl-kanamycin (abbreviated as 1-IS-KM), 1-N-DL-isoseryl-kanamycin B (abbreviated as 1-IS-KMB) and 1-N-DL-isoseryl-3',4'-dideoxykanamycin B (abbreviated as 1-IS-DKB) are shown in the following table together with those of kanamycin (abbreviatedas KM), kanamycin B (abbreviated as KMB) and 3',4'-dideoxykanamycin B (abbreviated as DKB).
# [3] = tested on: Escherichia coli K-12 ML 1630; test: as above; type: cell-based; details: K12ML1630, 37°C, 18 hours
# Protocol: as §1, §2
# [4] = tested on: Shigella flexneri 4b JS 11811; test: as above; type: cell-based; details: 4BJS11811, 37°C, 18 hours
# Protocol: as §1, §2
# [5] = tested on: Pseudomonas aeruginosa TI-13; test: as above; type: cell-based; details: TI13, 37°C, 18 hours
# Protocol: as §1, §2
# [6] = tested on: Shigella sonnei JS 11746; test: as above; type: cell-based; details: JS11746, 37°C, 18 hours
# Protocol: as §1, §2
# [7] = tested on: phosphotransferase; details: phosphorylation of the 3'-hydroxyl group; cited from earlier work
# [8] = tested on: Escherichia coli JR66/W677; test: Minimum inhibitory concentration, serial dilution on nutrient agar; type: cell-based; details: JR66/W677, 37°C, 18 hours, read-out: Minimum Inhibitory Concentration
# [9] = tested on: Corynebacterium bovis 1810; test: as above; type: cell-based; details: read-out: Minimum Inhibitory Concentration
# [10] = tested on: Staphylococcus aureus FDA 209P; test: as above; type: cell-based; details: FDA209P, read-out: Minimum Inhibitory Concentration
# [11] = tested on: Staphylococcus aureus Terajima; test: as above; type: cell-based; details: read-out: Minimum Inhibitory Concentration
# [12] = tested on: Staphylococcus aureus Smith; test: as above; type: cell-based; details: read-out: Minimum Inhibitory Concentration
# [13] = tested on: Escherichia coli LA290 R64; test: as above; type: cell-based; details: LA290R64, 18 h, read-out: Minimum Inhibitory Concentration
# [14] = tested on: Pseudomonas aeruginosa No.12; test: as above; type: cell-based; details: read-out: Minimum Inhibitory Concentration
# [15] = tested on: Proteus vulgaris OX 19; test: as above; type: cell-based; details: read-out: Minimum Inhibitory Concentration
# [16] = tested on: Pseudomonas aeruginosa 99; test: as above; type: cell-based; details: read-out: Minimum Inhibitory Concentration
# [17] = tested on: Escherichia coli NIHJ; test: as above; type: cell-based; details: read-out: Minimum Inhibitory Concentration
# [18] = tested on: Shigella dysenteriae JS 11910; test: as above; type: cell-based; details: JS11910, 18 h, read-out: Minimum Inhibitory Concentration
# [19] = tested on: Klebsiella pneumoniae PCI 602; test: as above; type: cell-based; details: read-out: Minimum Inhibitory Concentration
# [20] = tested on: Escherichia coli W677; test: as above; type: cell-based; details: read-out: Minimum Inhibitory Concentration
# [21] = tested on: Bacillus anthracis; test: microbe, parasite or virus in culture; type: cell-based; details: 18 h, read-out: Minimum Inhibitory Concentration
# [22] = tested on: Bacillus subtilis NRRL B-558; test: Minimum inhibitory concentration, serial dilution on nutrient agar; type: cell-based; details: read-out: Minimum Inhibitory Concentration
# [23] = tested on: Sarcina lutea PCI 1001; test: as above; type: cell-based; details: Micrococcus luteus, read-out: Minimum Inhibitory Concentration
# [24] = tested on: kanamycin-resistant strains; details: phosphotransferase-producing resistant strains; cited from earlier work
# [25] = tested on: Bacillus cereus ATCC 10702; test: Minimum inhibitory concentration, serial dilution on nutrient agar; type: cell-based; details: read-out: Minimum Inhibitory Concentration
# [26] = tested on: nucleotidyltransferase; details: adenylylation of 2"-hydroxyl group with ATP; cited from earlier work
# [27] = tested on: Escherichia coli K-12 ML 1410; test: Minimum inhibitory concentration, serial dilution on nutrient agar; type: cell-based; details: K12ML1410, 18 h, read-out: Minimum Inhibitory Concentration
# [28] = tested on: Escherichia coli K-12 ML 1410 R81; test: as above; type: cell-based; details: 18 h, read-out: Minimum Inhibitory Concentration
# [29] = tested on: Salmonella typhosa T-63; test: as above; type: cell-based; details: Salmonella enterica, 18 h, read-out: Minimum Inhibitory Concentration
# [30] = tested on: Escherichia coli JR66/W677; details: nucleotidyltransferase-producing resistant strain; cited from earlier work
# [31] = tested on: Salmonella enteritidis 1891; test: Minimum inhibitory concentration, serial dilution on nutrient agar; type: cell-based; details: Salmonella enterica, 18 h, read-out: Minimum Inhibitory Concentration
# [32] = tested on: Mycobacterium smegmatis ATCC 607; test: as above; type: cell-based; details: Mycolicibacterium smegmatis, read-out: Minimum Inhibitory Concentration
# [33] = tested on: Escherichia coli LA290 R55; test: as above; type: cell-based; details: LA290R55, 18 h, read-out: Minimum Inhibitory Concentration
# [34] = tested on: Escherichia coli K-12 ML 1629; test: as above; type: cell-based; details: K12ML1629, 37°C, 18 hours, read-out: Minimum Inhibitory Concentration
# [35] = tested on: Klebsiella pneumoniae 22 No. 3038; test: as above; type: cell-based; details: read-out: Minimum Inhibitory Concentration
# [36] = tested on: Pseudomonas aeruginosa GN315; test: as above; type: cell-based; details: read-out: Minimum Inhibitory Concentration
# [37] = tested on: Escherichia coli K-12; test: as above; type: cell-based; details: read-out: Minimum Inhibitory Concentration
# [38] = tested on: Escherichia coli LA290 R56; test: as above; type: cell-based; details: LA290R56, 18 h, read-out: Minimum Inhibitory Concentration
# [39] = tested on: kanamycin- and ribostamycin-resistant bacteria; details: some kanamycin- and ribostamycin-resistant bacteria; cited from earlier work
smiles,measurement,setting,value
"NC[C@@H]1CC[C@@H](N)[C@@H](O[C@H]2[C@H](O)[C@@H](O[C@H]3O[C@H](CO)[C@@H](O)[C@H](N)[C@H]3O)[C@H](N)C[C@@H]2N)O1 [DKB, 3',4'-dideoxykanamycin B, reference compound]",MIC,"[1]; PCI219, 37°C, 18 hours",< 0.2 µg/mL
same,MIC,[2],1.56 µg/mL
same,MIC,[3],0.78 µg/mL
same,MIC,[4],1.56 µg/mL
same,MIC,[5],1.56 µg/mL
same,MIC,[6],0.78 µg/mL
same,susceptibility to / inactivation by phosphotransferase,[7],not susceptible
same,MIC,[8],50 µg/mL
same,MIC,"[9]; Corynebacterium bovis, 1810, 37°C, 18 hours",3.13 µg/mL
same,MIC,"[10]; 37°C, 18 hours",< 0.2 µg/mL
same,MIC,"[11]; 37°C, 18 hours",< 0.2 µg/mL
same,MIC,"[12]; 37°C, 18 hours",< 0.2 µg/mL
same,MIC,[13],6.25 µg/mL
same,MIC,"[14]; NO.12, 37°C, 18 hours",0.78 µg/mL
same,MIC,"[15]; OX19, 37°C, 18 hours",< 0.2 µg/mL
same,MIC,"[16]; Pseudomonas aeruginosa, 99, 37°C, 18 hours",3.13 µg/mL
same,MIC,"[17]; 37°C, 18 hours",0.39 µg/mL
same,MIC,[18],1.56 µg/mL
same,MIC,"[19]; PCI602, 37°C, 18 hours",0.39 µg/mL
same,MIC,"[20]; W677, 37°C, 18 hours",0.2 µg/mL
same,MIC,[21],< 0.2 µg/mL
same,MIC,"[22]; NRRLB558, 37°C, 18 hours",< 0.2 µg/mL
same,MIC,"[23]; PCI1001, 37°C, 18 hours",6.25 µg/mL
same,activity against kanamycin-resistant strains,[24],actually effective
same,MIC,"[25]; ATCC10702, 37°C, 18 hours",0.78 µg/mL
same,inactivation by nucleotidyltransferase,[26],inactivating
same,MIC,[27],1.56 µg/mL
same,MIC,[28],1.56 µg/mL
same,MIC,[29],< 0.2 µg/mL
same,activity against Escherichia coli JR66/W677,[30],inactive
same,MIC,[31],1.56 µg/mL
same,MIC,"[32]; ATCC607, 37°C, 18 hours",0.39 µg/mL
same,MIC,[33],50 µg/mL
same,MIC,[34],0.78 µg/mL
same,MIC,"[35]; 22NO.3038, 37°C, 18 hours",100 µg/mL
same,MIC,"[36]; GN315, 37°C, 18 hours",> 100 µg/mL
same,MIC,"[37]; K12, 37°C, 18 hours",0.78 µg/mL
same,MIC,[38],12.5 µg/mL
"NC[C@H]1O[C@H](O[C@H]2[C@H](O)[C@@H](O[C@H]3O[C@H](CO)[C@@H](O)[C@H](N)[C@H]3O)[C@H](N)C[C@@H]2N)[C@H](O)[C@@H](O)[C@@H]1O [KM, kanamycin]",MIC,"[1]; PCI219, 18 h",< 0.2 µg/mL
same,MIC,[2],50 µg/mL
same,MIC,[3],> 100 µg/mL
same,MIC,[4],6.25 µg/mL
same,MIC,[5],> 100 µg/mL
same,MIC,[6],3.13 µg/mL
same,MIC,[8],> 100 µg/mL
same,MIC,"[9]; Corynebacterium bovis, 1810, 18 h",3.13 µg/mL
same,MIC,[10]; 18 h,0.78 µg/mL
same,MIC,[11]; 18 h,< 0.2 µg/mL
same,MIC,[12]; 18 h,< 0.2 µg/mL
same,MIC,[13],12.5 µg/mL
same,MIC,"[14]; NO.12, 18 h",25 µg/mL
same,MIC,"[15]; OX19, 18 h",0.78 µg/mL
same,MIC,"[16]; Pseudomonas aeruginosa, 99, 18 h",> 100 µg/mL
same,MIC,[17]; 18 h,1.56 µg/mL
same,MIC,[18],6.25 µg/mL
same,MIC,"[19]; PCI602, 18 h",0.78 µg/mL
same,MIC,"[20]; W677, 18 h",1.56 µg/mL
same,MIC,[21],< 0.2 µg/mL
same,MIC,"[22]; NRRLB558, 18 h",< 0.2 µg/mL
same,MIC,"[23]; PCI1001, 18 h",6.25 µg/mL
same,MIC,"[25]; ATCC10702, 18 h",1.56 µg/mL
same,inactivation by nucleotidyltransferase,[26],inactivating
same,MIC,[27],1.56 µg/mL
same,MIC,[28],> 100 µg/mL
same,MIC,[29],0.39 µg/mL
same,MIC,[31],0.78 µg/mL
same,MIC,"[32]; ATCC607, 18 h",0.78 µg/mL
same,MIC,[33],100 µg/mL
same,MIC,[34],> 100 µg/mL
same,MIC,"[35]; 22NO.3038, 18 h",> 100 µg/mL
same,MIC,"[36]; GN315, 18 h",> 100 µg/mL
same,MIC,"[37]; K12, 18 h",1.56 µg/mL
same,MIC,[38],12.5 µg/mL
"NCC[C@H](O)C(=O)N[C@@H]1C[C@H](N)[C@@H](O[C@H]2O[C@H](CN)[C@@H](O)[C@H](O)[C@H]2N)[C@H](O[C@@H]2O[C@H](CO)[C@@H](O)[C@H]2O)[C@H]1O [butirosin B, 1-N-[(S)-4-amino-2-hydroxy-n-butyryl]-ribostamycin]",activity against resistant bacteria,[39],active
